Consider four compounds from US6838465B2, “N-acyltetrahydroisoquinoline derivatives” (Banyu Pharmaceutical Co., Ltd., priority 2000, dated 2005).

The target in one assay is T1, human OX2 receptor (Homo sapiens, UniProt O43614).
T1 construct: expressed in transfected cells
T1 sequence (O43614 1-444): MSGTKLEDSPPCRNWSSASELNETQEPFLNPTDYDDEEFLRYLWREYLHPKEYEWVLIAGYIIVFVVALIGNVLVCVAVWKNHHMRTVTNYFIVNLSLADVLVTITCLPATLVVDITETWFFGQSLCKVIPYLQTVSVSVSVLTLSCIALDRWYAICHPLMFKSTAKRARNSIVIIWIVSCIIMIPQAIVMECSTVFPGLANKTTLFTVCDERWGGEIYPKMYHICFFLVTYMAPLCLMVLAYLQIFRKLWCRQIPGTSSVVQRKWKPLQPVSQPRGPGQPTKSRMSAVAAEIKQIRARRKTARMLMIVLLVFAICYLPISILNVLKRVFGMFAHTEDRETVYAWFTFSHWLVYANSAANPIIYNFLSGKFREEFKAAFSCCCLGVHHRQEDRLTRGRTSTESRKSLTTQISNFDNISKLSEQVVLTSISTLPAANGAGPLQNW
The assay can be described thus: Inhibition of orexin A-induced increase in intracellular calcium concentration (FLIPR), OX2 receptor expressing CHO-K1 cells. Type of assay: cell-based. To be noted: CHO-K1 cells stably expressing human OX2 receptor; 0.3 nM orexin A; compound added 5 minutes before; fluo-3 AM; read-out: 50% Inhibition concentration, OX2 receptor. The text has this:
(§1) A cDNA sequence encoding human orexin OX1 receptor or OX2 receptor (see GenBank, accession number AF 041243 and AF 041245) was cloned into the EcoRV-EcoRI site of a mamal expressed plasmid vector pIRESIneo (made by Clontech Laboratories, Inc.) and the PmlI-XbaI site of a mamal expressed plasmid vector pEF/myc/cyto (made by Invitrogen Corp.). The resulting vectors were respectively transfected into Chinese hamster's ovarian cells CHO-K1 (Americam Type Culture Collection, ATCC number CCL-61). Then, cells having resistance to 2 mg/ml of Geneticin (G418, made by Life Technologies, Inc.) were selected to obtain a cell line stably expressing a human OX1 receptor and a cell line stably expressing a human OX2 receptor. The OX1 receptor or OX2 receptor stably expressing cells were made to take up fluo-3, AM (made by Molecualr Probes Inc.), a fluorescent indicator of calcium concentration, and then 0.3 nM of orexin A was added to a suspension of the cells in an assay buffer (Hank's […] salt solution adjusted to pH 7.4 and containing 20 mM HEPES, 0.5% bovine serum albumin and 2.5 mM probenecid), and the change of the intracellular calcium concentration was measured with time lapse using FLIPR (Fluorometric Imaging Plate Reader, made by Molecular Devices Corp.). The effect of a test compound influencing the increase in the intracellular calcium concentration was assayed by adding the test compound in various concentrations to the assay solutions, 5 minutes before the addition of orexin A, and the 50% inhibition concentration (IC50 value) of the test compound against the increase in intracellular calcium concentration caused by the addition of 0.3 nM orexin A was determined (Table 1).
In general terms: Calcium assays in cells follow changes in intracellular calcium, usually with a dye or a luminescent sensor.

The target in a further assay is T2, human OX1 receptor (Homo sapiens, UniProt O43613).
T2 construct: expressed in transfected cells
T2 sequence (O43613 1-425): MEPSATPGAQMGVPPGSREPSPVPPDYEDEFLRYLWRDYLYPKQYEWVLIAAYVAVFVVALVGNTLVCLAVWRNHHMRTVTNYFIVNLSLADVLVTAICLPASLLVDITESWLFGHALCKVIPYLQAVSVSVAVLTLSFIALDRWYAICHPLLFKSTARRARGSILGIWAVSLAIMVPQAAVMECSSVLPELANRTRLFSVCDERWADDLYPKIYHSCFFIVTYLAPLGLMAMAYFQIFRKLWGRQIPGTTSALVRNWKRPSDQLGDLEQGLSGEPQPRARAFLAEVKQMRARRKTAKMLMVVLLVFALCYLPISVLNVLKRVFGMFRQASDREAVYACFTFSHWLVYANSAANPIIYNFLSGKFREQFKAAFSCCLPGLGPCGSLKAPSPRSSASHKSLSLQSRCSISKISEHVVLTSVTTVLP
Kind of assay: Inhibition of orexin A-induced increase in intracellular calcium concentration (FLIPR), OX1 receptor expressing CHO-K1 cells. Type of assay: cell-based. To be noted: CHO-K1 cells stably expressing human OX1 receptor; 0.3 nM orexin A; compound added 5 minutes before; fluo-3 AM; read-out: 50% Inhibition concentration, OX1 receptor.
Text: as §1

For the compound `COc1cc2c(cc1OC)CN(C(=O)C(Cc1ccccc1)NC(=O)c1cc(Cl)cc(Cl)c1)CC2` (centres unmarked) [Example 4, N-[2-(6,7-dimethoxy-1,2,3,4-tetrahydroisoquinolin-2-yl)-2-oxo-1-benzylethyl](3,5-dichlorophenyl)carboxyamide], the IC50 came out at 31 nM at human OX2 receptor and 5300 nM at human OX1 receptor.
The like results for `COc1cc2c(cc1OC)CN(C(=O)[C@@H](NCc1ccncc1)C(C)(C)C)CC2` [Example 6, (2S)-2-(N-4-pyridylmethyl)amino-1-(6,7-dimethoxy-1,2,3,4-tetrahydroisoquinolin-2yl)-3,3-dimethylbutan-1-one] were, in that order, 110 nM and 24000 nM.
The like results for `COc1cc2c(cc1OC)CN(C(=O)[C@@H](NCc1nccs1)C(C)(C)C)CC2` [Example 8, (2S)-1-(6,7-dimethoxy-1,2,3,4-tetrahydroisoquinolin-2-yl)-3,3-dimethyl-2-((2-thiazolylmethyl)amino)butan-1-one] were, in that order, 49 nM and 17000 nM.
As for `COc1cc2c(cc1OC)CN(C(=O)[C@@H](NCc1cccc(Br)c1)C(C)(C)C)CC2` [Example 23, (2S)-2-(3-bromobenzylamino)-1-(6,7-dimethoxy-1,2,3,4-tetrahydroisoquinolin-2-yl)-3,3-dimethylbutan-1-one], the results for the IC50 on human OX2 receptor and at human OX1 receptor were 140 nM and 4400 nM, respectively.
